From patent US9221868B2, “Uridine di- or tri-phosphate derivatives and uses thereof” (BAR-ILAN UNIVERSITY, priority 2010, dated 2015)
Several values for one entry are separate records, joined by “and”; a condition that tells them apart may be missing. Identical values can stand only once.

What was measured:
human NPP1 = biological target: T1, human NPP1 (Homo sapiens, UniProt P22413); experiment: Hydrolysis by NPP1 (HPLC); format: in vitro ADME; conditions: 2 h at 37° C., pH 8.5
T1 construct: Center of Research in Rheumatology and Immunology, Laval University (Québec, Canada), provided and not purchased
T1 sequence (P22413 1-925): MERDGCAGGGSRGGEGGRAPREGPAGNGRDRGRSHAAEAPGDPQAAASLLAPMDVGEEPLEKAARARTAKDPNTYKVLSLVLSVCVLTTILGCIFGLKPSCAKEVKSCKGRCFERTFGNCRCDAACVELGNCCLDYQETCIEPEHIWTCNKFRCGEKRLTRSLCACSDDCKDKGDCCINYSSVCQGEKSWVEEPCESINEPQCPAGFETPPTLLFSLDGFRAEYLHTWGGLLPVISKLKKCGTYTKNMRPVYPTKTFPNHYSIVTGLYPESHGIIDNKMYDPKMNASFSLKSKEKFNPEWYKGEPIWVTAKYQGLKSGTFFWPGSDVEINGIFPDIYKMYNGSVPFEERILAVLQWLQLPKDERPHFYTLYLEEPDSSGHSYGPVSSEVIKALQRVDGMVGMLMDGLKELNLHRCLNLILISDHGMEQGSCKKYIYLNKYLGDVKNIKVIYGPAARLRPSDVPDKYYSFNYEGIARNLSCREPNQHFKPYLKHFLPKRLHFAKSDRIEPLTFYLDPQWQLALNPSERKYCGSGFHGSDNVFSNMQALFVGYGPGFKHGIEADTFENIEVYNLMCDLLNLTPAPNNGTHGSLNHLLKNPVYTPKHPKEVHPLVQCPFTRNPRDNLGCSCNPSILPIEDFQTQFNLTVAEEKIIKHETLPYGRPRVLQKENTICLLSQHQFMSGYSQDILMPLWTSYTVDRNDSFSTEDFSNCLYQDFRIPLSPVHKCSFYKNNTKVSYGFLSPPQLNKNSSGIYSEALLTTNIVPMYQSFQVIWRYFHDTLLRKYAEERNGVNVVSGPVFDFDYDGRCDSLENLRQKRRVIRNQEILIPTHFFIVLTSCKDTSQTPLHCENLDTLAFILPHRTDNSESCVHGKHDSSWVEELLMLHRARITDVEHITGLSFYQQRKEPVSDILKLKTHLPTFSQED
Description: (§1) All stability experiments were performed in duplicates.
(§2) In this study, the hydrolysis rate of analogue 13A as compared to UDP and analogue 12, by human NPP1 and NPP3 after incubation at 37° C. in appropriate buffer, was determined.
(§3) 56.15 μg or 57.78 μg of human NPP1 or NPP3 extract, respectively, was added to 0.575 ml the incubation mixture (1 mM […], 200 mM NaCl, 10 mM KCl and 100 mM Tris, pH 8.5) and preincubated at 37° C. for 3 min. Reaction was initiated by the addition of 0.015 ml of 4 mM of UDP, 12 or 13A. The reaction was stopped after incubation of 2 h or 3 h with NPP1 or NPP3, respectively, by transferring a 0.1 ml aliquot from the reaction mixture to 0.350 ml ice-cold 1 M perchloric acid. These samples were centrifuged for 1 min at 10000×g. Supernatants were neutralized with 1 M KOH in 4° C. and centrifuged 1 min at 10000×g. The reaction mixture was filtered and freeze-dried.

human NPP3 = biological target: T2, human NPP3 (Homo sapiens, UniProt O14638); experiment: Hydrolysis by NPP3 (HPLC); format: in vitro ADME; conditions: 3 h at 37° C., pH 8.5
T2 construct: Center of Research in Rheumatology and Immunology, Laval University (Québec, Canada), provided and not purchased
T2 sequence (O14638 1-875): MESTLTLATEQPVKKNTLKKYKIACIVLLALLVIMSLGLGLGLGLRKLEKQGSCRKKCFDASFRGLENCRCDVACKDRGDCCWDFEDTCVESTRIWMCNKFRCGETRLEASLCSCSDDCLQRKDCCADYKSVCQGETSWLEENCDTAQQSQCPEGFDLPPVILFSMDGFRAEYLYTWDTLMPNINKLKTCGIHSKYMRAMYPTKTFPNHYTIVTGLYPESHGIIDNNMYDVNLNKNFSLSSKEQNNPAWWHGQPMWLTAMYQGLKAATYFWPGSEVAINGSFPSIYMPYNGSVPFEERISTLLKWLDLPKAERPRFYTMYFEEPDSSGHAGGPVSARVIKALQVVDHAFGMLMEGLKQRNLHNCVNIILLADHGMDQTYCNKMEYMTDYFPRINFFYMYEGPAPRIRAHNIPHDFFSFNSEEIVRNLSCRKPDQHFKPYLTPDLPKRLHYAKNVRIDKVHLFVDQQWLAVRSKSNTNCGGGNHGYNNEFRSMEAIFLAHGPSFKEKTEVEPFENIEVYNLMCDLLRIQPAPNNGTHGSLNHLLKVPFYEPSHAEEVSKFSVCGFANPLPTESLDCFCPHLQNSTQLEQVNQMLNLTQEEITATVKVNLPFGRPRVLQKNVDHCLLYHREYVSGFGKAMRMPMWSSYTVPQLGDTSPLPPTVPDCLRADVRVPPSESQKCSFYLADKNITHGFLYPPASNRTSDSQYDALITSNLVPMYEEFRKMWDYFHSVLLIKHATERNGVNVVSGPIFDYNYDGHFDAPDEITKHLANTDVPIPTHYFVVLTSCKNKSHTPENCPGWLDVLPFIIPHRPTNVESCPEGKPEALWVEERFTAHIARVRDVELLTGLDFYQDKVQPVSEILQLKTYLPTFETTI
Description: as §1, §2, §3

[1] = Stability in human blood serum (HPLC); conditions: for half-life at 0.14 mg/ml: human, human blood serum diluted in RPMI-1640
Description: Human blood serum was obtained from a blood bank (Tel-Hashomer Hospital, Israel). All stability experiments were performed in duplicates.
The assay mixture containing 0.1 mg each analogue in deionized water (4.5 μl), human blood serum (180 μl) and RPMI-1640 medium (540 μl) (Eliahu et al., 2010a) was incubated at 37° C. for 0-24 h. At 0.5-12 h intervals, each sample was heated to 80° C. for 30 min, treated with CM Sephadex (1-2 mg), shaken for 2 h and centrifuged for 6 min (12000 rpm), and the aqueous layer was collected and extracted with chloroform (2×500 μl). The aqueous layer was freeze-dried and then dissolved in deionized water (100 μl). Samples were loaded onto an activated Starta X-AW weak anion exchange cartridge, washed with H2O (1 ml) and eluted with MeOH:H2O (1:1, 1 ml) followed by NH4OH:MeOH:H2O (2:25:73, 1 ml), and then freeze-dried. The resulting residue was analyzed by HPLC on a Gemini analytical column (5μ C-18 557 110 A; 150 mm×4.60 mm), using gradient elution with solvent system I (for UDP and 12—A:B 96:4 over 10 min) or II (for uridine-5′-O-(α-borano diphosphate) and 13A—A:B 97.5:2.5 over 10 min) at a flow rate of 1 ml/min. […] The percentage of compound degradation was calculated vs. control, to take into consideration the degradation of the compounds due to the work up following the enzymatic reaction. Therefore, each of the samples was compared to a control which was put through the same workup, but to which no serum was added. The percentage of degradation was calculated from the area under the curve of the nucleoside monophosphate peak, after subtraction of the control, which is the amount of the nucleoside monophosphate peak formed due to chemical hydrolysis.

physchem = conditions: for half-life / Half-life (t1/2) of hydrolysis at pH 1.4: buffer, pH 1.4; for Rate constant of phosphate ester hydrolysis at pH 1.4: pH 1.4, 37° C., pseudo-first-order
Description: as §1
The stability of UDP, 11, 12 and 13A in a buffer solution (pH 1.4) was evaluated by ^31P NMR at 37° C. for monitoring possible dephosphorylation products (the signal of the phosphate hydrolysis products is at ˜0 ppm, while that of the borano phosphate analogues is at ˜85 ppm). NMR spectra were recorded on a Bruker DMX-600 spectrometer with a ^31P NMR probe (isotope frequency of 240 MHz) using 85% H3PO4 as an external reference.
Sodium salts of UDP, 11, 12 and 13A were dissolved in 0.45 ml of KCl/HCl buffer (pH 1.4) and D2O (0.05 ml) was added. The final pH was adjusted to pH 1.4. pH measurements were performed with an Metrohm pH electrode and a Metrohm 827 meter. Spectra were recorded at 15 min, 1 h, or 24 h time intervals at 37° C. For experiments that were several days long, the solution was kept in an oil bath at 37° C. and spectra were recorded at ca. 24 h time intervals. The phosphate ester hydrolysis rate was determined by measuring the change of the integration of one of the phosphates signals of the starting material with time.

| Hydrolysis percentage by NPP1 (human NPP1) | Hydrolysis percentage by NPP3 (human NPP3) [%] | half-life at 0.14 mg/ml [1] [h] | half-life (physchem) [h] | Half-life in human blood serum ([1]; human blood serum and RPMI-1640, 37° C.) [h] | Half-life (t1/2) of hydrolysis at pH 1.4 (physchem) [days] | Rate constant of phosphate ester hydrolysis at pH 1.4 (physchem) | SMILES |
| --- | --- | --- | --- | --- | --- | --- | --- |
| 15% | 28 | 17 | 16.9 | – | – | – | [BH3-][P+](O)(OCC1OC(n2cc(OC)c(=O)[nH]c2=O)C(O)C1O)OP(=O)(O)O (single isomer, unassigned) [Analogue 13A, 5-methoxyuridine-5′-O-(α-boranodiphosphate)] |
| 50% | 45 | – | – | 2.4 | ~12 | 6.66×10^−7 s^−1 | O=c1ccn([C@@H]2O[C@H](COP(=O)(O)OP(=O)(O)O)[C@@H](O)[C@H]2O)c(=O)[nH]1 [UDP, reference compound] |
| 49% and 51% | 36 | 11.9 | ~312 | – | 13 | 6.25×10^−7 s^−1 | COc1cn([C@@H]2O[C@H](COP(=O)(O)OP(=O)(O)O)[C@@H](O)[C@H]2O)c(=O)[nH]c1=O [Analogue 12, 5-methoxyuridine diphosphate] |
